The results in this text go back to PubChem BioAssay AID2658 (Sanford-Burnham Center for Chemical Genomics, 2010).

One may read the IC50 as the concentration needed to halve the response being measured.

“And” between values parts separate entries of the source, which are not always exact repeats. Identical values can stand only once. The source made the active and inactive calls. The rule behind the calls is not given here.

For this test, the target named is Ubiquitin-conjugating enzyme E2 N (Homo sapiens) (UniProt P61088). Nature of the test: Ubc13/Uev1a ubiquitination inhibitors, SAR follow-up, selectivity assay, biochemical, TR-FRET (AID 2658). The note with it: Ubc13/Uev1a polyubiquitination, in vitro. On the technique in general: Time-resolved FRET reads energy transfer from a long-lived donor to a nearby acceptor.
Sequence of Ubiquitin-conjugating enzyme E2 N (Homo sapiens) (P61088 whole entry, looked up): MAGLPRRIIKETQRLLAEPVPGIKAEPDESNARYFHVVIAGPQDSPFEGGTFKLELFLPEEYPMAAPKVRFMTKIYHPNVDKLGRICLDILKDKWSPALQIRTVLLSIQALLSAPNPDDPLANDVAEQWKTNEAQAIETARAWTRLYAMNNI
Consider `Cc1[nH][nH]c(=O)c1C(c1ccc(-c2cccc(C(=O)O)c2)o1)c1c(C)[nH][nH]c1=O`, for which the IC50 was > 100 µM (inactive).

For `COc1ccccc1CNC(=O)CCOC(=O)c1cc(-c2ccco2)nc2ccccc12`, the IC50 was > 100 µM (inactive). The same measure for `COc1ccc(CNC(=O)COC(=O)c2cc(-c3cccs3)nc3ccccc23)cc1`: 33.1 µM; for `O=C(Nc1ccccc1N1CCOCC1)c1cc(-c2ccco2)nc2ccccc12`: > 100 µM (inactive). The same measure for `O=[N+]([O-])c1ccc2[nH]c(O)c(N=NC(=S)Nc3cccnc3)c2c1`: > 100 µM (inactive); for `S=c1[nH]nc(-c2cc(-c3ccccc3)n[nH]2)n1N=Cc1c(Cl)cccc1Cl`: > 100 µM (inactive); for `COc1ccc(CCNC(=O)COC(=O)c2cc(-c3ccco3)nc3ccccc23)cc1`: > 100 µM (inactive).

As for `COC(=O)c1c(-c2ccccc2)csc1NC(=O)/C=C/c1cccs1`, the IC50 was > 100 µM (inactive). Take `Cc1ccc(S(=O)(=O)N(C)C)cc1NC(=O)c1cc(-c2ccco2)nc2ccccc12`: the IC50 is > 100 µM (inactive). Consider `COc1ccccc1NC(=O)COC(=O)c1cc(-c2ccco2)nc2ccccc12`, for which the IC50 is 16.7 µM and > 100 µM (inactive). As to `Cc1ccc(Nc2cc3ccccc3c(=O)[nH]2)cc1`, the IC50 was > 100 µM (inactive). In the case of `Cc1cccc(Nc2cc3ccccc3c(=O)[nH]2)c1`, the IC50 is > 100 µM (inactive). The same measure for `NS(=O)(=O)c1ccc2c(c1)C1C=CCC1C(c1ccc([N+](=O)[O-])cc1)N2` (stereo unspecified): > 100 µM (inactive). The result for `CN(Cc1ccc(F)cc1)C(=O)COC(=O)c1cc(-c2ccco2)nc2ccccc12` reads > 100 µM (inactive); that for `O=C(NN=Cc1ccc(F)cc1)c1cc(-c2ccco2)nc2ccccc12`, > 100 µM (inactive).

`Cc1cccc2c(N=Nc3ccc(S(=O)(=O)Nc4cccc(Cl)c4)cc3[N+](=O)[O-])c(O)[nH]c12`: the IC50 is > 100 µM (inactive).

With `COC(=O)c1ccc(CNC(=O)COC(=O)c2cc(-c3ccco3)nc3ccccc23)cc1`, the IC50 was > 100 µM (inactive).

In the case of `O=C(COC(=O)c1cc(-c2ccco2)nc2ccccc12)NCc1ccccc1Cl`, the IC50 is > 100 µM (inactive). The same measure for `COC(=O)c1ccc2c(c1)C1C=CCC1C(c1ccc(C(=O)O)cc1)N2` (stereo unspecified): > 100 µM (inactive). The result for `O=C(N/N=C/c1ccc(F)cc1)c1cc(-c2ccco2)nc2ccccc12` reads 26.1 µM and 31.2 µM; that for `COc1ccccc1COC(=O)COC(=O)c1cc(-c2ccco2)nc2ccccc12`, 68.2 µM; that for `O=C(NNc1cc(N2CCCC2)nc(N2CCCC2)n1)c1ccc([N+](=O)[O-])cc1`, > 100 µM (inactive). The same measure for `COc1ccc(CCNC(=O)COC(=O)c2cc(-c3ccco3)nc3ccccc23)cc1OC`: 92.6 µM. As to `COc1ccc(CNC(=O)c2cc(-c3ccco3)nc3ccccc23)cc1`, the IC50 was > 100 µM (inactive).

Take `O=C(COC(=O)c1cc(-c2ccco2)nc2ccccc12)NCc1ccccc1`: the IC50 was > 100 µM (inactive). The same measure for `COc1ccc(CNC(=O)COC(=O)c2cc(-c3ccc(C)o3)nc3ccccc23)cc1`: 86.6 µM; for `S=c1[nH]nc(-c2cc(-c3ccccc3)n[nH]2)n1N=Cc1ccc(Cl)c(Cl)c1`: > 100 µM (inactive); for `O=C(O)c1ccc2c(c1)C1C=CCC1C(c1ccccc1)N2` (stereo unspecified): > 100 µM (inactive). The same measure for `Cc1ccc(NC(=O)Cn2c(O)c(N=NC(=O)c3cc4ccccc4cc3O)c3ccccc32)cc1`: > 100 µM (inactive); for `O=C(COC(=O)c1cc(-c2ccco2)nc2ccccc12)NCc1ccc(Cl)cc1`: 73.4 µM and 74.4 µM.

In the case of `Clc1ccc2c(c1)C1C=CCC1C(c1ccccc1)N2` (stereo unspecified), the IC50 is > 100 µM (inactive).

`O=c1[nH]c(Nc2ccccc2)cc2ccccc12`: the IC50 is > 100 µM (inactive).

On to `CN(C(=O)COC(=O)c1cc(-c2ccco2)nc2ccccc12)C1CCS(=O)(=O)C1` (stereo unspecified), for which the IC50 was 47.2 µM.

For `O=C(OCC(=O)N1CCc2ccccc2C1)c1cc(-c2ccco2)nc2ccccc12`, the IC50 was > 100 µM (inactive). The result for `COc1ccc(CNC(=O)CCOC(=O)c2cc(-c3ccco3)nc3ccccc23)cc1` reads > 100 µM (inactive); that for `COc1ccc(CCNC(=O)c2cc(-c3ccco3)nc3ccccc23)cc1`, 65 µM. The same measure for `S=c1[nH]nc(-c2cc(-c3ccccc3)n[nH]2)n1N=Cc1ccc(Br)s1`: > 100 µM (inactive); for `N=C(N)c1ccc2cc(OC(=O)c3ccc(N=C(N)N)cc3)ccc2c1`: 14 µM. Consider `O=C(OCC(=O)N1CCN(C(=O)c2ccco2)CC1)c1cc(-c2ccco2)nc2ccccc12`, for which the IC50 was 93.1 µM. The result for `C=CCn1c(NC(=O)c2ccccc2Cl)c(C#N)c2nc3ccccc3nc21` reads > 100 µM (inactive); that for `Cc1ccccc1CNC(=O)COC(=O)c1cc(-c2ccco2)nc2ccccc12`, 81.1 µM. The result for `O=C(COC(=O)c1cc(-c2ccco2)nc2ccccc12)NC(=O)c1ccccc1` reads 92.6 µM; that for `COc1ccc(C=NNc2cc(N3CCCC3)nc(N3CCCC3)n2)cc1`, 53.8 µM. The result for `Cc1ccsc1C=Nc1ccccc1O` reads > 100 µM (inactive). Take `Cc1ccc(O)c(N=Cc2cccs2)c1`: the IC50 was > 100 µM (inactive). The same measure for `Cc1ccsc1C=Nc1ccc(F)cc1`: > 100 µM (inactive); for `COc1ccc(CNC(=O)COC(=O)c2cc(-c3ccco3)nc3ccccc23)cc1`: 34.6 µM. The same measure for `S=c1[nH]nc(-c2cc(-c3ccccc3)n[nH]2)n1N=Cc1ccccc1`: > 100 µM (inactive); for `CCN(CC)S(=O)(=O)c1ccc(O)c(NC(=O)c2cc(-c3cc(OC)c(OC)c(OC)c3)nc3ccccc23)c1`: > 100 µM (inactive); for `COc1ccccc1NC(=O)Cn1c(O)c(N=NC(=O)c2ccccc2O)c2ccccc21`: > 100 µM (inactive).

Turning to `O=C1c2oc3ccccc3c(=O)c2C(c2ccccc2)N1c1nccs1` (stereo unspecified), the IC50 was > 100 µM (inactive).

Consider `O=C(/C=C/c1cccs1)Nc1scc(-c2ccccc2)c1C(=O)O`, for which the IC50 is 78.4 µM. Consider `C=CCC(Nc1ccccc1)C12C=CC(O1)C(C(=O)OC)=C2C(=O)OC` (stereo unspecified), for which the IC50 was > 100 µM (inactive). The result for `CCOc1cc(C2c3c(oc4ccccc4c3=O)C(=O)N2c2nccs2)ccc1O` (stereo unspecified) reads > 100 µM (inactive); that for `Cc1ccc(N=Cc2sccc2C)cc1C`, > 100 µM (inactive).

As to `O=C1c2oc3ccccc3c(=O)c2C(c2ccc(O)cc2)N1c1nccs1` (stereo unspecified), the IC50 was > 100 µM (inactive).

For the molecule `S=c1[nH]nc(-c2cc(-c3ccccc3)n[nH]2)n1N=Cc1cccc(Cl)c1`, the IC50 was > 100 µM (inactive). The same measure for `CC(=NOCc1nc2ccccc2c(=O)n1N=Cc1cc(C)cc([N+](=O)[O-])c1O)c1ccccc1`: > 100 µM (inactive); for `O=c1c2ccccc2nc(COc2ccccc2)n1N=Cc1cc([N+](=O)[O-])ccc1O`: > 100 µM (inactive).

For `COc1ccc(-n2c(NC(=O)c3ccc(Br)o3)c(C#N)c3nc4ccccc4nc32)cc1`, the IC50 was > 100 µM (inactive). The same measure for `COc1ccccc1CNC(=O)COC(=O)c1cc(-c2cccs2)nc2ccccc12`: 82.5 µM.
